Source: article PMC7203344, “Sirtuin 1 Inhibiting Thiocyanates (S1th)—A New Class of Isotype Selective Inhibitors of NAD^+ Dependent Lysine Deacetylases” (Frontiers in Oncology, 2020)

Tests used:
Sirt1 [1] = target: T1, Sirt1 (Homo sapiens, UniProt Q96EB6); assay: Homogeneous ZMAL-based fluorescence assay, Sirt1; assay type: biochemical; conditions: 4th round
T1 construct: made in house; host or cells: E. coli BL21 Star (DE3)
T1 sequence (Q96EB6 134-747): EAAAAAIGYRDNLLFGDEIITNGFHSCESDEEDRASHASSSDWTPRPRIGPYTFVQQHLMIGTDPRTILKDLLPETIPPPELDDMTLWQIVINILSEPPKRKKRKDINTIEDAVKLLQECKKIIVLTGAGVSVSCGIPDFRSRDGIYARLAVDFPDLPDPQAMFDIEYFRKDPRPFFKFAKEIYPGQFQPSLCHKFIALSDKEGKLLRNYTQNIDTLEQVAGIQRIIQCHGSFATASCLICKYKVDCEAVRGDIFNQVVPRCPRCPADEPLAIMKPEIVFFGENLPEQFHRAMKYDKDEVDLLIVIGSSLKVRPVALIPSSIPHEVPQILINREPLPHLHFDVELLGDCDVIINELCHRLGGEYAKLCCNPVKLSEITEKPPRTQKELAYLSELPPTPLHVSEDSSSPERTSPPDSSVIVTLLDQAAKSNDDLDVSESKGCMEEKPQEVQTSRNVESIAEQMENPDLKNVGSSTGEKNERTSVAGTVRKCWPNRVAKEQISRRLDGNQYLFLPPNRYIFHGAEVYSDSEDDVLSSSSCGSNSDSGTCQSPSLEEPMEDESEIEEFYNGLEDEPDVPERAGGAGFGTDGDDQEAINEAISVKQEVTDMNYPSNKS
Method: Recombinant human Sirt5_37−310 was purchased readily in Tris Buffer [25 mM Tris, 100 mM NaCl, 5 mM DTT, 10% glycerol (v/v)] from Enzo Life Sciences (NY, USA). Human Sirt3_118−395 was expressed and purified as described previously ([54]). For expression of human Sirt1_134−747 and Sirt2_56−356 chemically competent cells of E. coli BL21 Star (DE3) were transformed with the expression vectors pET30S-hSirt1_134−747 or pET30S-hSirt2_56−356. Bacteria were grown at 37°C in 2×YT medium supplemented with 50 μg·mL^−1 of kanamycin to an OD600 of 0.6. Then isopropyl-β-D-1-thiogalactopyranoside (IPTG) was added to a final concentration of 1 mM to induce gene expression. After further cultivation at 20°C for 12 h, the cells were harvested by centrifugation for 15 min at 5,000 g. The cells were resuspended in lysis buffer [100 mM Tris/HCl buffer at pH 8.0, 150 mM NaCl and 10% (v/v) glycerol] and disrupted by ultrasonication (Branson Digital Sonifier 250) at 70% amplitude for 10 min (3 s working, 10 s pause). The crude extract was cleared by centrifugation at 100,000 g for 1 h, and the supernatant was loaded onto a Strep-Tactin Superflow cartridge (5 ml bed volume, IBA Lifescience, Germany). Target proteins were eluted with lysis buffer containing 5 mM D-Desthiobiotin (IBA Lifescience, Germany) and further separated by size-exclusion chromatography (Superdex S200 26/60, GE Healthcare, IL, USA) equilibrated in Tris/HCl buffer (20 mM, 150 mM NaCl, pH 8.0). Pure protein was concentrated by ultrafiltration, flash-frozen in liquid nitrogen and stored at −80°C until further use. Identity as well as purity were verified by SDS-PAGE ([55]) and protein concentration was determined by the bicinchoninic acid (BCA) method, using bovine serum albumin (BSA) as a standard ([56]). Deacetylase activity was confirmed to be NAD^+-dependent and could be inhibited with the physiological sirtuin inhibitor nicotinamide.
All compounds were tested in the trypsin-coupled high-throughput ZMAL-assay in black 96-well plates (OptiPlateTM−96F, black, 96 well, Pinch bar design, PerkinElmer, USA), using ZMAL (Z-Lys(acetyl)-AMC) as a substrate ([57]). Sirt1_134−747, Sirt2_56−356, and Sirt3_118−395 were mixed with 5 μL substrate (10.5 μM final assay concentration, diluted from a […] stock in DMSO) and 3 μL Inhibitor in DMSO at various concentrations or DMSO as a control [final DMSO concentration 5% (v/v)]. The mixture was supplemented with assay buffer (50 mM Tris/HCl, 137 mM NaCl, 2.7 mM KCl, 1 mM MgCL2, pH 8.0) to a total volume of 55 μL. Enzyme concentration was adjusted to get a final conversion of 20–30%. Addition of 5 μL NAD^+ (6 mM in assay buffer, final assay concentration of 500 μM) initiated the catalytic reaction and the plates were incubated at 37°C for 4 h with agitation at 140 rpm. The catalytic reaction was stopped by addition of 60 μL stop solution [50 mM Tris, 100 mM NaCl, 6.7% (V/V) DMSO, 5.5 U/μL trypsin, 8 μM nicotinamide, pH 8.0]. The plate was again incubated at 37°C and 140 rpm for 20 min to release free AMC from the deacetylated substrate by trypsin digestion. Afterwards, fluorescence intensity was measured in a microplate reader (λEx = 390 nm, λEm = 460 nm, BMG POLARstar Optima, BMG Labtech, Germany). An enzyme-free blank control and a 100% conversion control containing AMC instead of ZMAL were measured in addition. Inhibition was calculated in % in relation to a DMSO control after blank signal subtraction and IC50 values were determined using a non-linear regression to fit the dose-response curve with OriginPro 9G (OriginLab, USA). Pre-tests as well as IC50 determination was carried out at least twice in duplicates.

Sirt1 [2] = target: T1, Sirt1; assay: Fluorescent thermal shift assay (FTSA), Sirt1; assay type: binding; conditions: inhibitor 100 μM; read-out: Thermal shift assay: Δ Tm of Sirt1
Method: In a 96-well plate (Hard-Shell® PCR-plates, 96-well, thin-wall, BioRAD, USA) 14 μL Sirt1_134−747 in assay buffer (0.3 mg/mL final assay concentration, 50 mM Tris/HCl, 137 mM NaCl, 2.7 mM KCl, 1 mM MgCL2, pH 8.0) were mixed with 1 μL inhibitor in DMSO (100 μM) or DMSO [final assay concentration 5% (v/v)] as a control and 5 μL SyproOrange (1:100 in assay buffer). The fluorescence intensity was monitored during a constant increase of temperature from 20 to 95°C, 1 K per 20 s, using a real-time-PCR-machine (C1000 TouchTM Thermal Cycler, CFX96TM Real-Time System, BioRAD, USA). Melting temperatures were calculated via GraphPad Prism according to a published procedure ([60]).

MCF7 cells = assay: Cell proliferation assay with MCF7 cells; assay type: cell-based, human; conditions: concentrations as for HeLa
Method: 1.5 × 10^4 cells/well were seeded in 24-well plates and grown in DMEM 10% in presence of DMSO, 20 μM EX-527, 12 μM S1th 13, 20 μM S1th 12, or 30 μM S1th 10. The growth media containing the drugs was replaced every 48 h. Cells were collected and counted at the indicated times starting 24 h after seeding (0, 24, 48, 72, 96, and 120 h). The experiment was performed twice in duplicates.

IC50 (Sirt1 [1]) [µM] | ΔTm at 100 µM (Sirt1 [2]) [°C] | SMILES | cell proliferation of MCF7 cells (MCF7 cells)
23 ± 6 | -5.9 | N#CSc1cccc(NC(=O)[C@H]2CC=CC[C@H]2C(=O)O)c1 [S1th 10] | most effective
6.3 ± 0.8 | -8.1 | CCCCNC(=O)Nc1cccc(SC#N)c1 [S1th 11] | 
5.9 ± 1.4 | -7.2 | COc1ccc(SC#N)cc1OCC(=O)N(CCC#N)CCC#N [S1th 12] | only have a mild effect
5.2 ± 1 | -9.6 | N#CSc1cccc(NS(=O)(=O)c2ccc3c(c2)OCCO3)c1 [S1th 13] | most effective

SMILES | IC50 (Sirt1 [1]) [µM] | ΔTm at 100 µM (Sirt1 [2]) [°C] | cell proliferation of MCF7 cells (MCF7 cells)
N#CSc1cc(SC#N)c(N)nc1N [PR-619, reference compound] | 2.7 ± 0.2 |  | 
